From patent US20190382396A1, “SALTS OF BICYCLO[1.1.1]PENTANE INHIBITORS OF DUAL LEUCINE ZIPPER (DLK) KINASE FOR THE TREATMENT OF DISEASE” (Board of Regents, The University of Texas System, priority 2018, published 2019)

Columns and labels:
Format in all cases: physicochemical
[1] = Particle size distribution of hydrogen fumarate salt 11; conditions: for D-value: in µm (unit assumed)
Method: VMD=[…]; STD=[…]; Duration=0.04; Copt=2.90.

[2] = Polymorph formation of hydrogen fumarate salt 11 (slurry, anti-solvent, heat-cool); set-up: key to Observation 50° C. / observation rt / observation 60° C.: “s” = slurry; “c” = clear
Method: Formation of polymorphs of the hydrogen fumarate salt 11 was examined. About 15 mg of hydrogen fumarate salt 11 was combined with 0.5 mL of a selected organic solvent in a vial. The mixture was stirred at 700 RPM at 50° C. for 2 days. If a solid precipitate was present, the solid precipitate was then removed by centrifugation (14,000 RPM, 5 min) and dried under vacuum at 30° C. (Method I). If a solid precipitate was not present, the solvent was removed by evaporation under vacuum at 30° C. (Method II). In either case, the resulting material was evaluated by XRPD.
Polymorph formation was examined with a slurry method using various solvents. About 500 mg of hydrogen fumarate salt 11 was combined with 50 mL of DMSO and 1 mL DMF to afford a saturated solution. Anti-solvent (no more than 5x solution volume) chosen from EtOH, iPrOH, acetone, water, and EtOAc was added. In no case was a precipitate formed.
Polymorph formation was further examined with a heat-cool method using various solvents. About 100 mg of hydrogen fumarate salt 11 was combined with 1 mL of a selected solvent. The mixture was stirred at 700 RPM for 4 hrs at 60° C., then allowed to cool to room temperature. The cycle was repeated twice. If a solid precipitate was present, the solid precipitate was then removed by centrifugation and dried under vacuum at 30° C. (Method I). If a solid precipitate was not present, the solvent was removed by evaporation (Method II). In either case, the resulting material was evaluated by XRPD.

[3] = Dynamic vapor sorption (DVS), hygroscopicity
Method: Dynamic vapor sorption (“DVS”) was performed at 25° C., using approx 10-15 mg of sample and N2 gas at a flow rate of 200 mL/min, dm/dt=0.01% min, minimum dm/dt stability duration of 10 min, max equilibration time of 180 min, drying at 0% RH for 120 min, scanning from 0% RH to 90% RH to 0% RH with a step size of 10% RH.
Total cycling time varied, but in all cases was about 200-250 min.

[4] = Thermogravimetric analysis / DSC weight loss; conditions: <120° C.
Method: Differential scanning calorimetry (“DSC”) was performed with a TA Q2000 instrument, using approx 1 mg of sample in a crimped Al pan, heating from room temperature to 300° C. at a rate of 10° C./min.
Thermogravimetric analysis (“TGA”) was performed with a TA Q5000 instrument, using approx 2-5 mg of sample in an open Pt pan, heating from room temperature to 300° C. at a rate of 10° C./min.

[5] = Solubility of hydrogen fumarate salt 11 (1000 mg scale-up batch)

Compound: CC(C)c1nc(-c2cnc(N)c(OC(F)(F)F)c2)cn1C12CC(N3CCOCC3)(C1)C2.O=C(O)/C=C/C(=O)O [Example 11, 5-(2-isopropyl-1-(3-morpholinobicyclo[1.1.1]pentan-1-yl)-1H-imidazol-4-yl)-3-(trifluoromethoxy)pyridin-2-amine hydrogen fumarate]
- PSD D90 ([1]; 8500 mg scale-up batch): D90 = 43 uM
- D-value ([1]; % level 5): 1.20
- D-value ([1]; % level 10): 2.21
- D-value ([1]; % level 15): 3.64
- D-value ([1]; % level 20): 5.39
- D-value ([1]; % level 25): 7.16
- D-value ([1]; % level 30): 8.89
- D-value ([1]; % level 35): 10.58
- D-value ([1]; % level 40): 12.28
- D-value ([1]; % level 45): 14.04
- D-value ([1]; % level 50): 15.88
- D-value ([1]; % level 55): 17.79
- D-value ([1]; % level 60): 19.93
- D-value ([1]; % level 65): 22.30
- D-value ([1]; % level 70): 24.85
- D-value ([1]; % level 75): 28.06
- D-value ([1]; % level 80): 31.79
- D-value ([1]; % level 85): 36.34
- D-value ([1]; % level 90): 42.91
- D-value ([1]; % level 95): 54.73
- observation 60° C. ([2]; heat-cool method, Acetone): s
- observation rt ([2]; heat-cool method, Acetone): s
- observation 60° C. ([2]; heat-cool method, EtOAc): s
- observation rt ([2]; heat-cool method, EtOAc): s
- observation 60° C. ([2]; heat-cool method, EtOH): s
- observation rt ([2]; heat-cool method, EtOH): s
- XRPD results ([2]; heat-cool method, THF): amorphous
- observation 60° C. ([2]; heat-cool method, THF): c
- observation rt ([2]; heat-cool method, THF): c
- observation 60° C. ([2]; heat-cool method, iPrOH): s
- observation rt ([2]; heat-cool method, iPrOH): s
- Observation 50° C. ([2]; slurry 50° C., 2 days, 1/1 (v/v) EtOH/H2O): c
- Observation 50° C. ([2]; slurry 50° C., 2 days, 1/1 (v/v) acetone/H2O): c
- Observation 50° C. ([2]; slurry 50° C., 2 days, Acetone): c
- Observation 50° C. ([2]; slurry 50° C., 2 days, CH2Cl2): s
- Observation 50° C. ([2]; slurry 50° C., 2 days, CH3CN): s
- Observation 50° C. ([2]; slurry 50° C., 2 days, Dioxane): c
- Observation 50° C. ([2]; slurry 50° C., 2 days, EtOAc): s
- Observation 50° C. ([2]; slurry 50° C., 2 days, EtOH): c
- Observation 50° C. ([2]; slurry 50° C., 2 days, H2O): s
- Observation 50° C. ([2]; slurry 50° C., 2 days, Heptane): s
- Observation 50° C. ([2]; slurry 50° C., 2 days, MeOH): c
- XRPD pattern ([2]; slurry 50° C., 2 days, MeOH): almost
- Observation 50° C. ([2]; slurry 50° C., 2 days, Toluene): s
- Observation 50° C. ([2]; slurry 50° C., 2 days, iPrOH): c
- Maximum sorption ([3]; DVS, 25° C.): 0.47%
- Hygroscopicity (0-40% RH) ([3]; DVS, 25° C., 0-40% RH): 0.1%
- Hygroscopicity (0-90% RH) ([3]; DVS, 25° C., 0-90% RH): 0.47%
- Change in mass (%) Desorption ([3]; DVS, Target % P/P0 0.0): −0.0114%
- Change in mass (%) Sorption ([3]; DVS, Target % P/P0 0.0): 0.0000%
- Change in mass (%) Desorption ([3]; DVS, Target % P/P0 10.0): 0.0209%
- Change in mass (%) Hysteresis ([3]; DVS, Target % P/P0 10.0): 0.0010%
- Change in mass (%) Sorption ([3]; DVS, Target % P/P0 10.0): 0.0200%
- Change in mass (%) Desorption ([3]; DVS, Target % P/P0 20.0): 0.0448%
- Change in mass (%) Hysteresis ([3]; DVS, Target % P/P0 20.0): 0.0067%
- Change in mass (%) Sorption ([3]; DVS, Target % P/P0 20.0): 0.0381%
- Change in mass (%) Desorption ([3]; DVS, Target % P/P0 30.0): 0.0866%
- Change in mass (%) Hysteresis ([3]; DVS, Target % P/P0 30.0): 0.0286%
- Change in mass (%) Sorption ([3]; DVS, Target % P/P0 30.0): 0.0581%
- Change in mass (%) Desorption ([3]; DVS, Target % P/P0 40.0): 0.1238%
- Change in mass (%) Hysteresis ([3]; DVS, Target % P/P0 40.0): 0.0267%
- Change in mass (%) Sorption ([3]; DVS, Target % P/P0 40.0): 0.0971%
- Change in mass (%) Desorption ([3]; DVS, Target % P/P0 50.0): 0.1695%
- Change in mass (%) Hysteresis ([3]; DVS, Target % P/P0 50.0): 0.0352%
- Change in mass (%) Sorption ([3]; DVS, Target % P/P0 50.0): 0.1343%
- Change in mass (%) Desorption ([3]; DVS, Target % P/P0 60.0): 0.2285%
- Change in mass (%) Hysteresis ([3]; DVS, Target % P/P0 60.0): 0.0457%
- Change in mass (%) Sorption ([3]; DVS, Target % P/P0 60.0): 0.1828%
- Change in mass (%) Desorption ([3]; DVS, Target % P/P0 70.0): 0.2885%
- Change in mass (%) Hysteresis ([3]; DVS, Target % P/P0 70.0): 0.0438%
- Change in mass (%) Sorption ([3]; DVS, Target % P/P0 70.0): 0.2447%
- Change in mass (%) Hysteresis ([3]; DVS, Target % P/P0 80.0): 0.0390%
- Change in mass (%) Sorption ([3]; DVS, Target % P/P0 80.0): 0.3295%
- Change in mass (%) Desorption ([3]; DVS, Target % P/P0 90.0): 0.4742%
- Change in mass (%) Sorption ([3]; DVS, Target % P/P0 90.0): 0.4742%
- Hygroscopicity; form change ([3]; form change after DVS): no change
- weight loss (TGA, %) [4]: 0.11% (<120° C.)
- solubility ([5]; aqueous with cosolvent or surfactant or cyclodextrin, 1/1 (v/v) Acetone/H2O, 50° C.): 50 to 100 mg/mL
- solubility ([5]; aqueous with cosolvent or surfactant or cyclodextrin, 1/1 (v/v) Acetone/H2O, RT): < 33 mg/mL
- solubility ([5]; aqueous with cosolvent or surfactant or cyclodextrin, 1/1 (v/v) EtOH/H2O, 50° C.): 50 to 100 mg/mL
- solubility ([5]; aqueous with cosolvent or surfactant or cyclodextrin, 1/1 (v/v) EtOH/H2O, RT): 20 to 33 mg/mL
- solubility ([5]; ethanol, organic solvent or mixture, EtOH, 50° C.): 20 to 33 mg/mL
- solubility ([5]; ethanol, organic solvent or mixture, EtOH, RT): < 20 mg/mL
- solubility ([5]; organic solvent or mixture, ACN, 50° C.): < 10 mg/mL
- solubility ([5]; organic solvent or mixture, ACN, RT): < 10 mg/mL
- solubility ([5]; organic solvent or mixture, Acetone, 50° C.): 10 to 20 mg/mL
- solubility ([5]; organic solvent or mixture, Acetone, RT): < 10 mg/mL
- solubility ([5]; organic solvent or mixture, DCM, 50° C.): < 10 mg/mL
- solubility ([5]; organic solvent or mixture, DCM, RT): < 10 mg/mL
- solubility ([5]; organic solvent or mixture, DMF, RT): > 100 mg/mL
- solubility ([5]; organic solvent or mixture, DMSO, 50° C.): > 100 mg/mL
- solubility ([5]; organic solvent or mixture, DMSO, RT): < 100 mg/mL
- solubility ([5]; organic solvent or mixture, Dioxane, 50° C.): 20 to 33 mg/mL
- solubility ([5]; organic solvent or mixture, Dioxane, RT): < 20 mg/mL
- solubility ([5]; organic solvent or mixture, EtOAc, 50° C.): < 10 mg/mL
- solubility ([5]; organic solvent or mixture, EtOAc, RT): < 10 mg/mL
- solubility ([5]; organic solvent or mixture, Heptane, 50° C.): < 10 mg/mL
- solubility ([5]; organic solvent or mixture, Heptane, RT): < 10 mg/mL
- solubility ([5]; organic solvent or mixture, IPA, 50° C.): 20 to 33 mg/mL
- solubility ([5]; organic solvent or mixture, IPA, RT): 10 to 20 mg/mL
- solubility ([5]; organic solvent or mixture, MEK, 50° C.): 10 to 20 mg/mL
- solubility ([5]; organic solvent or mixture, MEK, RT): < 10 mg/mL
- solubility ([5]; organic solvent or mixture, MTBE, 50° C.): < 10 mg/mL
- solubility ([5]; organic solvent or mixture, MTBE, RT): < 10 mg/mL
- solubility ([5]; organic solvent or mixture, MeOH, 50° C.): 50 to 100 mg/mL
- solubility ([5]; organic solvent or mixture, MeOH, RT): 25 to 50 mg/mL
- solubility ([5]; organic solvent or mixture, THF, 50° C.): 33 to 50 mg/mL
- solubility ([5]; organic solvent or mixture, THF, RT): < 10 mg/mL
- solubility ([5]; organic solvent or mixture, Toluene, 50° C.): < 10 mg/mL
- solubility ([5]; organic solvent or mixture, Toluene, RT): < 10 mg/mL
- solubility ([5]; water, H2O, 50° C.): 10 to 20 mg/mL
- solubility ([5]; water, H2O, RT): < 10 mg/mL
